Laboratory results from patent US20260240869A1, “ANTIPSEUDOMONAL FUSIDIC ACID COMPOUNDS” (priority 2022, published 2026).
≈ marks a conversion by molar mass, not a printed value. Read-outs that look alike come from different tables or passages of the source.

Columns and labels:
[1] = test system: tolC EC; conditions: retrospective literature analysis (Table 6); cited from earlier work
[2] = test system: WT PA; conditions: retrospective literature analysis (Table 6); cited from earlier work
[3] = test system: PA efflux KO; conditions: retrospective literature analysis (Table 6); cited from earlier work
[4] = test system: WT EC; conditions: retrospective literature analysis (Table 6); cited from earlier work
[5] = test system: E. coli MG1655; test: MIC, E. coli MG1655; format: cell-based; conditions: Escherichia coli, MG1655; Table 9; read-out: MIC E. coli MG1655
Method: (§1) Antimicrobial Susceptibility Tests. Susceptibility testing was performed in biological triplicate, using the microdilution broth method as outlined by the Clinical and Laboratory Standards Institute. Bacteria were cultured with cation-adjusted Meuller-Hinton broth (Sigma-Aldrich; catalogue number: 90922) or Luria-Bertani (LB) broth (Lennox) in round-bottom 96-well plates (Corning; catalogue number: 3788).

[6] = test system: S. aureus ATCC 29213; test: MIC, S. aureus ATCC 29213; format: cell-based; conditions: Staphylococcus aureus, ATCC29213; Table 9; read-out: MIC S. aureus ATCC 29213
Method: as §1

[7] = test system: P. aeruginosa PAO1; test: MIC, CLSI broth microdilution, P. aeruginosa PAO1; format: cell-based, Pseudomonas aeruginosa; conditions: for MIC: Pseudomonas aeruginosa
Method: as §1

[8] = test system: P. aeruginosa PA14; test: MIC, P. aeruginosa PA14; format: cell-based, Pseudomonas aeruginosa; conditions: for MIC: Pseudomonas aeruginosa
Method: as §1

[9] = test system: P. aeruginosa PA1280; test: MIC, P. aeruginosa PA1280; format: cell-based, Pseudomonas aeruginosa; conditions: for MIC: Pseudomonas aeruginosa
Method: as §1

[10] = test system: P. aeruginosa PAO1; test: LC-MS/MS whole-cell accumulation assay, P. aeruginosa PAO1; format: cell-based, Pseudomonas aeruginosa
Method: (§2) Accumulation Assay. The accumulation assay was performed in triplicate in batches of ten samples, with each batch containing tetracycline or ciprofloxacin as a positive control. P. aeruginosa PAO1, PAO1 A6, PA14, PA14 A40, and PA1280, and E. coli MG1655 were used in these experiments. For each replicate, 2.5 mL (E. coli) or 5 mL (P. aeruginosa) of an overnight culture was diluted into 250 mL of fresh Luria-Bertani broth (Lennox) or Tryptic Soy Broth (TSB) and grown at 37° C. with shaking to an optical density (OD600) of 0.55-0.60. The bacteria were pelleted at 3220 r.c.f. for 10 min at 4° C., and the supernatant was discarded. The pellets were resuspended in 40 mL of phosphate buffered saline (PBS) and pelleted as before, and the supernatant was discarded. The pellets were resuspended in 8.8 mL of fresh PBS and aliquoted into ten, 1.5 mL Eppendorf tubes (875 μL each). The number of colony-forming units (CFUs) was determined by a calibration curve. The samples were equilibrated at 37° C. with shaking for 5 min; compound was added (final concentration=50 μM), and then the samples were incubated at 37° C. with shaking for either 10 min. These time points were short enough to minimize metabolic and growth changes (no changes in OD600 or CFU count observed). After incubation, 800 μL of the cultures was carefully layered on 700 μL of silicone oil (9:1 AR20/Sigma High Temperature, cooled to −78° C.). Bacteria were pelleted through the oil by centrifuging at 13 000 r.c.f. for 2 min at room temperature (with the supernatant remaining above the oil); the supernatant and oil were then removed by pipetting. To lyse the samples, each pellet was dissolved in […] of water, and then, they were subjected to three (E. coli) or four (P. aeruginosa) freeze-thaw cycles of 3 min in liquid nitrogen followed by 3 min in a water bath at 65° C. P. aeruginosa samples were then treated with 50 µM DNase and RNase and incubated at 37° C. for 15 minutes. The lysates were pelleted at 13 000 r.c.f. for 2 min at room temperature, and the supernatant was collected ([…]). The debris was resuspended in 100 μL of methanol and pelleted as before. The supernatants were removed and combined with the previous supernatants collected. Finally, the remaining debris was removed by centrifuging at 20 000 r.c.f. for 10 min at room temperature. Supernatants were analyzed by LC-MS/MS.
(§3) Samples were analyzed with the 5500 QTRAP LC/MS/MS system (AB Sciex) with a 1200 series HPLC system (Agilent Technologies) including a degasser, an autosampler, and a binary pump. Liquid chromatography separation was performed on an Agilent SB-Aq column (4.6×50 mm, 5 μm) (Agilent Technologies) with mobile phase A (0.1% formic acid in water) and mobile phase B (0.1% formic acid in acetonitrile). The flow rate was 0.3 mL/min. The linear gradient was as follows: 0-3 min, 100% mobile phase A; 10-15 min, 2% mobile phase A; 15.5-21 min, 100% mobile phase A. The autosampler was set at 5° C. The injection volume was 15 μL. Mass spectra were acquired with both positive electrospray ionization at the ion spray voltage of 5500 V and negative electrospray ionization at the ion spray voltage of −4500 V. The source temperature was 450° C. The curtain gas, ion source gas 1, and ion source gas 2 were 33, 50, and 65, respectively. Multiple reaction monitoring was used to quantify the metabolites. Power analysis was not used to determine the number of replicates. Error bars represent the standard error of the mean of three biological replicates. The statistical significance of the accumulation was determined using a two sample Welch's t test (one-tailed test, assuming unequal variance) relative to the negative controls. All compounds evaluated in the biological assays were >95% pure.
MBN assay. Assays measuring permeabilization by polymyxin B nonapeptide (PMBN) were performed as above, with the addition of 8 μg/mL PMBN immediately before the compound of interest was added.

[11] = test system: P. aeruginosa PAΔ6; test: MIC, efflux pump knockout strain PAΔ6; format: cell-based, Pseudomonas aeruginosa
Method: as §1

[12] = test system: P. aeruginosa PAΔ6; test: LC-MS/MS whole-cell accumulation assay, PAΔ6; format: cell-based, Pseudomonas aeruginosa; conditions: FIG. 1c
Method: as §2, §3

[13] = PA14, MH broth (Table 4), read-out: PA14 MIC
[14] = PA1280, MH broth (Table 4), read-out: PA1280 MIC
[15] = WT P. aeruginosa PAO1, MH broth (Table 1), read-out: PAO1 MIC

Structure (SMILES): Cc1ccc2c(C)c3c(c(O)c2c1O)C(=O)[C@]1(O)C(=O)C(C(N)=O)=C(O)[C@H](N)[C@@H]1C3 [CDCHD]
- tolC EC MIC [1]: 0.25 µg/mL
- WT PA MIC [2]: 1 µg/mL

Structure (SMILES): CC(=O)C1=C(O)[C@H](N)[C@@H]2Cc3c(c(O)c4c(O)c(C)ccc4c3C)C(=O)[C@]2(O)C1=O [CHD]
- tolC EC MIC [1]: 0.5 µg/mL
- WT PA MIC [2]: 16 µg/mL

Structure (SMILES): Cc1c(N2CC[C@@H]([C@H](C)N)C2)c(F)cc2c(CN)cc(=O)n(C3CC3)c12 [Compound 10]
- tolC EC MIC [1]: 0.06 µg/mL
- PA efflux KO MIC [3]: 0.5 µg/mL
- WT PA MIC [2]: 2 µg/mL
- WT EC MIC [4]: 1 µg/mL

Structure (SMILES): Cc1c(N2CC[C@@H]([C@H](C)N)C2)c(F)cc2c(CO)cc(=O)n(C3CC3)c12 [Compound 11]
- tolC EC MIC [1]: 0.25 µg/mL
- PA efflux KO MIC [3]: 4 µg/mL
- WT PA MIC [2]: 16 µg/mL
- WT EC MIC [4]: 16 µg/mL

Structure (SMILES): Cc1nc(-c2ccc(C(C)(C)C)cc2)ncc1C(=O)N[C@@H](CCN)C(=O)N(C)[C@@H]1C(=O)N[C@@H](C)C(=O)N[C@H](C(=O)NCC#N)Cc2ccc(OCCN)c(c2)-c2cc1ccc2OCCN [Compound G0775]
- tolC EC MIC [1]: 0.063 µg/mL
- WT PA MIC [2]: 2 µg/mL
- WT EC MIC [4]: 0.125 µg/mL

Structure (SMILES): Cc1nc(-c2ccc(C(C)(C)C)cc2)ncc1C(=O)N[C@@H](CCO)C(=O)N(C)[C@@H]1C(=O)N[C@@H](C)C(=O)N[C@H](C(=O)NCC#N)Cc2ccc(O)c(c2)-c2cc1ccc2O [Compound G8126]
- WT PA MIC [2]: >64 µg/mL
- WT EC MIC [4]: 32 µg/mL

Structure (SMILES): CC(=O)O[C@H]1C[C@@]2(C)[C@@H](C[C@@H](OC(C)=O)[C@H]3[C@@]4(C)CC[C@@H](OC(C)=O)[C@@H](C)[C@@H]4CC[C@@]32C)/C1=C(\CCC=C(C)C)C(=O)O [FA diacetate]
- MIC [5]: > 512 µg/mL
- MIC [6]: 64 µg/mL

Structure (SMILES): CC(=O)O[C@H]1C[C@@]2(C)[C@@H](C[C@@H](OC(C)=O)[C@H]3[C@@]4(C)CC[C@@H](OC(C)=O)[C@@H](C)[C@@H]4CC[C@@]32C)/C1=C(\CCC=C(C)C)C(=O)O/N=C(\N)CNCCCNCCCNCCCN [FA prodrug-diacetate]
- MIC [5]: 16 µg/mL (≈ 19 µM)
- MIC ([7]; PAO1, Table 9, read-out: MIC P. aeruginosa PAO1): 32 µg/mL (≈ 38 µM)
- MIC [6]: 16 µg/mL (≈ 19 µM)

Structure (SMILES): CC(=O)NC[C@H]1CN(c2ccc(N3CCOCC3)c(F)c2)C(=O)O1 [Linezolid]
- MIC [8, 13]: > 512 µg/mL
- MIC [9, 14]: > 512 µg/mL
- PAO1 MIC ([7]; MH broth (Table 4)): >512 µg/mL
- MIC [7, 15]: > 512 µg/mL

Structure (SMILES): C[C@@H](O)[C@H]1C(=O)N2C(C(=O)O)=C(S[C@@H]3CN[C@H](C(=O)N(C)C)C3)[C@H](C)[C@H]12 [Meropenem]
- MIC [8, 13]: 0.5 µg/mL (≈ 1.3 µM)
- MIC [9, 14]: 0.5 µg/mL (≈ 1.3 µM)
- accumulation in PAO1 (in words) ([10]; FIG. 1a / FIG. 5): minimal accumulation
- PAO1 MIC ([7]; MH broth (Table 4)): 0.25 µg/mL
- MIC [7, 15]: 0.25 µg/mL (≈ 0.652 µM)

Structure (SMILES): CO[C@@H]1[C@@H](OC(N)=O)[C@@H](O)[C@H](Oc2ccc3c(O)c(NC(=O)c4ccc(O)c(CC=C(C)C)c4)c(=O)oc3c2C)OC1(C)C [Novobiocin]
- MIC [8, 13]: > 512 µg/mL
- MIC [9, 14]: > 512 µg/mL
- change of accumulation upon membrane permeabilization ([10]; treatment with PMBN, FIG. 1b): significant increase in accumulation
- PAO1 MIC ([7]; MH broth (Table 4)): >512 µg/mL
- MIC [7, 15]: > 512 µg/mL
- PAO1 + PMBN MIC ([7]; co-treatment of 8 μg/mL of PMBN, MH broth): 1 µg/mL

Structure (SMILES): CN(C)[C@@H]1C(=O)C(C(N)=O)=C(O)[C@@]2(O)C(=O)C3=C(O)c4c(O)cccc4[C@@](C)(O)[C@H]3C[C@@H]12 [Tetracycline]
- PA14 MIC ([8]; MH broth (Table 4)): 8 µg/mL
- tolC EC MIC [1]: 0.25 µg/mL
- PA efflux KO MIC [3]: 0.25 µg/mL
- PA1280 MIC ([9]; MH broth (Table 4)): 32 µg/mL
- PAΔ6 MIC ([11]; MH or LB broth (Table 7)): 0.25 µg/mL
- Fold change (MIC) ([11]; WT MIC / PAΔ6 MIC (Table 7)): 64
- WT Accum ([10]; WT PAO1, ± s.e.m. (Table 7)): 452 ± 5 nmol/10^12 CFUs
- PAO1 MIC ([7]; MH broth (Table 4)): 16 µg/mL
- PAO1 MIC ([7]; WT P. aeruginosa PAO1, MH broth (Table 1)): 16 µg/mL
- WT MIC ([7]; WT P. aeruginosa PAO1, MH or LB broth (Table 7)): 16 µg/mL
- WT PA MIC [2]: 16 µg/mL
- WT EC MIC [4]: 1 µg/mL

Structure (SMILES): CN(C)c1cc(NC(=O)CNC(C)(C)C)c(O)c2c1C[C@H]1C[C@H]3[C@H](N(C)C)C(O)=C(C(N)=O)C(=O)[C@@]3(O)C(O)=C1C2=O [Tigecycline]
- MIC [8, 13]: 2 µg/mL (≈ 3.41 µM)
- tolC EC MIC [1]: 0.125 µg/mL
- PA efflux KO MIC [3]: 0.125 µg/mL
- MIC [9, 14]: 16 µg/mL (≈ 27.3 µM)
- accumulation relative to tetracycline ([10]; FIG. 1a): accumulates to a higher extent than tetracycline
- PAO1 MIC ([7]; MH broth (Table 4)): 1 µg/mL
- MIC [7, 15]: 1 µg/mL (≈ 1.71 µM)
- WT PA MIC [2]: 1 µg/mL
- WT EC MIC [4]: 0.5 µg/mL

Structure (SMILES): CN[C@H](CC(C)C)C(=O)N[C@H]1C(=O)N[C@@H](CC(N)=O)C(=O)N[C@H]2C(=O)N[C@H]3C(=O)N[C@H](C(=O)N[C@H](C(=O)O)c4cc(O)cc(O)c4-c4cc3ccc4O)[C@H](O)c3ccc(c(Cl)c3)Oc3cc2cc(c3O[C@@H]2O[C@H](CO)[C@@H](O)[C@H](O)[C@H]2O[C@H]2C[C@](C)(N)[C@H](O)[C@H](C)O2)Oc2ccc(cc2Cl)[C@H]1O [Vancomycin]
- MIC ([8]; PA14, read-out: PA14 MIC): > 512 µg/mL
- MIC ([9]; PA1280, read-out: PA1280 MIC): > 512 µg/mL
- Fold change ([11]; MIC ratio WT PAO1 / PAΔ6 (Table 2)): 1
- PAΔ6 MIC ([11]; efflux pump KO strain, MH or LB broth (Table 2)): >512 µg/mL
- PAO1 MIC ([7]; MH broth (Table 4)): >512 µg/mL
- MIC ([7]; PAO1, read-out: PAO1 MIC): > 512 µg/mL
- MIC ([7]; PAO1, read-out: WT MIC): > 512 µg/mL
- change of accumulation in efflux pump knockout PAΔ6 versus WT PAO1 [12]: no change in accumulation
